Like-named read-outs stand apart in the source and are kept apart here.
Experiments:
IRAK-1 = molecular target: T1, IRAK-1 (Homo sapiens, UniProt P51617); test: Enzymatic inhibition assay, IRAK-1 kinase activity (chemiluminescent ELISA); format: biochemical
T1 construct: Recombinant, full-length IRAK-1 or IRAK-4 enzyme (baculovirus expression system) was added; Flag (N); made in house
Procedure: Enzymatic inhibition assay.
(§1) 96-well polystyrene microtiter plates were coated with neutravidin for IRAK-1 or streptavidin for IRAK-4 ([…] in PBS, overnight at 4° C.). The coating solution was removed and in 80 μL/well a kinase reaction mixture was added (for IRAK-1: 20 mM Tris-HCl, pH 7.5, 10 mM MgCl2, 2 mM EGTA, 1 mM NaF, 0.5 mM benzamidine, 1 mM DTT, 3 μM ATP, […] of biotinylated substrate peptide bio-[…], sequence derived from IRAK-1; for IRAK-4: 20 mM Tris-HCl, pH 7.5, 10 mM MgCl2, 2 mM EGTA, 1 mM NaF, 0.5 mM benzamidine, 1 mM DTT, 10% glycerol, 10 μM ATP, […] of biotinylated substrate peptide bio-[…], sequence derived from GFAP).
(§2) At 10 μL/well in DMSO test compounds were added covering a final concentration range from 1 nM to […]. Recombinant, full-length IRAK-1 or IRAK-4 enzyme (baculovirus expression system) was added in 10 μL buffer containing Tris-HCl pH 7.5 20 mM, EGTA 2 mM, benzamidine 0.5 mM, DTT 1 mM, MgCl2 10 mM and glycerol 10% (IRAK-4 only) to initiate the kinase reaction. The reaction mixture was incubated at room temperature for 60 min on a shaker. During this incubation the substrate peptide is being phosphorylated by the kinase and gets captured onto the surface of the wells by neutravidin or streptavidin, respectively. The plate was washed 3× with 150 μL distilled water to terminate the reaction and remove components of the reaction mixture. A conventional chemiluminescent ELISA detection technique was initiated by adding 100 μL/well primary antibody (monoclonal antibody YC10, generated to recognize the phosphorylated epitope in the substrate peptide; used at 1:20,000 dilution for IRAK-1 and 1:10,000 dilution for IRAK-4) premixed with horseradish peroxidase (HRP) conjugated anti-mouse secondary antibody (commercially available from several sources; used at 1:10,000 dilution) in PBS containing 2% BSA. The solution was incubated at room temperature for 40 min on a shaker, then washed 3× with 150 μL of water. 100 μL/well 10× diluted SuperSignal HRP substrate (from Pierce) was added and after 5 min incubation the chemiluminescent signal was captured by a Labsystems LuminoSkan luminometer.

IRAK-4 = molecular target: T2, IRAK-4 (Homo sapiens, UniProt Q9NWZ3); test: Enzymatic inhibition assay, IRAK-4 kinase activity (chemiluminescent ELISA); format: biochemical
T2 construct: Recombinant, full-length IRAK-1 or IRAK-4 enzyme (baculovirus expression system) was added; His (N); made in house
T2 sequence (Q9NWZ3 1-460): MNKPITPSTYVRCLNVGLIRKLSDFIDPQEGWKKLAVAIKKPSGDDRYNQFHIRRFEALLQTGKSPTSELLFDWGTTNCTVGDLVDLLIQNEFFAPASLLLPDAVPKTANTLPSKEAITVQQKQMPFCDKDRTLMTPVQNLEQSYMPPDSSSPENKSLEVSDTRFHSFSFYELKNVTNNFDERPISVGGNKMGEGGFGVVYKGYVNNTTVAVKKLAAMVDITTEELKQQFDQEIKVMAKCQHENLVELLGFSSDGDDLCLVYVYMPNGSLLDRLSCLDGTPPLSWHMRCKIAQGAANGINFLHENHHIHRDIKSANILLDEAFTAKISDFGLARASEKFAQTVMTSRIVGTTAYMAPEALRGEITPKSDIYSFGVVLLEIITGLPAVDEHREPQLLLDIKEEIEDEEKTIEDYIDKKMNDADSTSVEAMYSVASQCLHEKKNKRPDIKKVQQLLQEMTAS
Procedure: Enzymatic inhibition assay. This example provides a method that is useful for evaluating test compounds for inhibition of IRAK-1 or IRAK-4 kinase activity.
as §1
as §2, with “luminometer. The point of 50% inhibition of IRAK-1 or IRAK-4 enzyme activity (IC50) was determined (see Table 1).” for “luminometer.”

[1] = recombinant full-length IRAK-4, 10 μM ATP, 60 min room temperature, read-out: IC50 values (μM) IRAK-4
[2] = recombinant full-length IRAK-1, 3 μM ATP, 60 min room temperature, read-out: IC50 values (μM) IRAK-1

T1 sequence (P51617 whole entry): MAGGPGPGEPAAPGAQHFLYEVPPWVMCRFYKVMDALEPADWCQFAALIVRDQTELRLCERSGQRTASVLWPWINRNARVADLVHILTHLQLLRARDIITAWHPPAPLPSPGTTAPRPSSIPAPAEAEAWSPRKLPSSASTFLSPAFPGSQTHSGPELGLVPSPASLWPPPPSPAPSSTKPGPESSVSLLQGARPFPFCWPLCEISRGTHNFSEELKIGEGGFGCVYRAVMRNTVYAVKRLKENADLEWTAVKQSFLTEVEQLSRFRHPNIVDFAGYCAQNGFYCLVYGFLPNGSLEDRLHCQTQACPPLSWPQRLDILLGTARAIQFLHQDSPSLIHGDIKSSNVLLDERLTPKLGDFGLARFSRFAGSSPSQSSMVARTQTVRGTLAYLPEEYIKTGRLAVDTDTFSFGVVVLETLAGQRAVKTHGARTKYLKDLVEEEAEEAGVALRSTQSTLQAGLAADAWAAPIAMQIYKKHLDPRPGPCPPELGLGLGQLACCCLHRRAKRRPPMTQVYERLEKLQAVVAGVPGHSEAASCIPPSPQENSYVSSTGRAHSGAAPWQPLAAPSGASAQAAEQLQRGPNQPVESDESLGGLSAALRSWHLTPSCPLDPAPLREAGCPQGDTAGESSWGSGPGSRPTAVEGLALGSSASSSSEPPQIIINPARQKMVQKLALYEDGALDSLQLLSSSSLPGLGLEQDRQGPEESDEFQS

Structure (SMILES): CS(=O)(=O)c1cccc(C(=O)Nc2nc3ccccc3n2CCN2CCOCC2)c1 [Compound 12, 3-methanesulfonyl-N-(1-(2-morpholin-4-yl-ethyl)-1H-benzoimidazol-2-yl)-benzamide]
- IC50 (IRAK-1): < 10 µM
- IC50 (IRAK-4; [1]): < 10 µM

Structure (SMILES): CCOC(=O)Cn1c(NC(=O)c2cccc([N+](=O)[O-])c2)nc2cc(F)c(F)cc21 [Compound 6, 3-nitro-N-(1-(ethylacet-2-yl)-5,6-difluoro-1H-benzoimidazol-2-yl)-benzamide]
- IC50 (IRAK-1): 10 to 30 µM
- IC50 (IRAK-4; [1]): < 10 µM

Structure (SMILES): COC(=O)c1ccc2c(c1)nc(NC(=O)c1cccc([N+](=O)[O-])c1)n2CCO [Compound 7a, 3-nitro-N-(1-hydroxyethyl-5-carboxymethyl-1H-benzoimidazol-2-yl)-benzamide]
- IC50 (IRAK-1): < 10 µM
- IC50 (IRAK-4; [1]): < 10 µM

Structure (SMILES): O=C(Nc1nc2ccccc2n1CCN1CCOCC1)c1cccc([N+](=O)[O-])c1 [Compound 3, 3-nitro-N-(1-(2-morpholin-4-yl-ethyl)-1H-benzoimidazol-2-yl)-benzamide]
- IC50 (IRAK-1; [2]): < 10 µM
- IC50 (IRAK-4): < 10 µM

Structure (SMILES): Cc1cc2nc(NC(=O)c3cccc([N+](=O)[O-])c3)[nH]c2cc1C [Compound 2, 3-nitro-N-(5,6-dimethyl-1H-benzoimidazol-2-yl)-benzamide]
- IC50 (IRAK-1; [2]): 10 to 30 µM
- IC50 (IRAK-4): < 10 µM

Structure (SMILES): COC(=O)c1cccc(C(=O)Nc2nc3ccccc3n2CCN2CCOCC2)c1 [Compound 11, 3-carboxymethyl-N-(1-(2-morpholin-4-yl-ethyl)-1H-benzoimidazol-2-yl)-benzamide]
- IC50 (IRAK-1): < 10 µM
- IC50 (IRAK-4; [1]): < 10 µM

Structure (SMILES): COC(=O)CCCn1c(NC(=O)c2cccc([N+](=O)[O-])c2)nc2ccccc21 [Compound 5, 3-nitro-N-(1-(3-carboxymethylpropyl)-1H-benzoimidazol-2-yl)-benzamide]
- IC50 (IRAK-1): < 10 µM
- IC50 (IRAK-4; [1]): < 10 µM

Structure (SMILES): O=C(Nc1nc2ccccc2n1CCO)c1ccc(Cl)c(Cl)c1 [Compound 10, 3,4-dichloro-N-(1-hydroxyethyl-1H-benzoimidazol-2-yl)-benzamide]
- IC50 (IRAK-1): 10 to 30 µM
- IC50 (IRAK-4; [1]): < 10 µM

Structure (SMILES): O=C(Nc1nc2cc(F)ccc2n1[C@H]1CC[C@H](O)CC1)c1cccc([N+](=O)[O-])c1 [Compound 16, 3-nitro-N-(1-(trans-4-cyclohexanol-1-yl)-5-fluoro-1H-benzoimidazol-2-yl)-benzamide]
- IC50 (IRAK-1; [2]): < 10 µM
- IC50 (IRAK-4; [1]): < 10 µM

Structure (SMILES): CC(C)(C)C(=O)Oc1ccc2c(c1)nc(NC(=O)c1cccc([N+](=O)[O-])c1)n2CCCO [Compound 15a, 3-nitro-N-(1-hydroxypropyl-5-(2′,2′-dimethylpropionyl)-1H-benzoimidazol-2-yl)-benzamide]
- IC50 (IRAK-4): < 10 µM

Structure (SMILES): O=C(Nc1nc2ccccc2n1CCN1CCOCC1)c1cccs1 [Compound 14, N-(1-(2-morpholin-4-yl-ethyl)-1H-benzoimidazol-2-yl)-2-thiophenecarboxamide]
- IC50 (IRAK-1): 10 to 30 µM
- IC50 (IRAK-4; [1]): 10 to 30 µM

Structure (SMILES): O=[N+]([O-])c1cccc(CNc2nc3ccccc3[nH]2)c1 [Compound 17]
- IC50 (IRAK-1; [2]): 10 to 30 µM
- IC50 (IRAK-4; [1]): 10 to 30 µM

Structure (SMILES): O=C(Nc1nc2ccccc2[nH]1)c1cccc([N+](=O)[O-])c1 [Compound 1, 3-nitro-N-(1H-benzoimidazol-2-yl)-benzamide]
- IC50 (IRAK-1; [2]): < 10 µM
- IC50 (IRAK-4): < 10 µM

Structure (SMILES): CCn1c(NC(=O)c2ccc(OC)cc2)nc2ccccc21 [Compound 8, 4-methoxy-N-(1-ethyl-1H-benzoimidazol-2-yl)-benzamide]
- IC50 (IRAK-1): 10 to 30 µM
- IC50 (IRAK-4; [1]): 10 to 30 µM

Structure (SMILES): O=C(Nc1nc2ccccc2n1CCO)c1cccc(Cl)c1 [Compound 9, 3-chloro-N-(1-hydroxyethyl-1H-benzoimidazol-2-yl)-benzamide]
- IC50 (IRAK-1): < 10 µM
- IC50 (IRAK-4; [1]): < 10 µM

Structure (SMILES): O=C(Nc1nc2ccccc2n1CCN1CCOCC1)c1ccc([N+](=O)[O-])o1 [Compound 13, 5-nitro-N-(1-(2-morpholin-4-yl-ethyl)-1H-benzoimidazol-2-yl)-2-furamide]
- IC50 (IRAK-1): < 10 µM
- IC50 (IRAK-4; [1]): < 10 µM

Structure (SMILES): O=C(Nc1nc2cc(F)c(F)cc2n1CCN1CCOCC1)c1cccc([N+](=O)[O-])c1 [Compound 4, 3-nitro-N-(1-(2-morpholin-4-yl-ethyl)-5,6-difluoro-1H-benzoimidazol-2-yl)-benzamide]
- IC50 (IRAK-1): < 10 µM
- IC50 (IRAK-4; [1]): < 10 µM

Source: patent US7132438B2, “Benzimidazole derivatives” (priority 2001, dated 2006)
